{"source": "patent US20240391965A1", "about": "“STAPLED ANTIMICROBIAL PEPTIDES (STAMPS) AND USES THEREOF” (Lytica Therapeutics, Inc., priority 2021, published 2024)", "key": {"[1]": {"experiment": "90 minute cytotoxicity assay (LDH release), renal toxicity", "format": "cell-based", "conditions": "90 minutes of incubation, LDH release; read-out: Inhibitory Concentration at 50% Cytotoxicity (IC50) Human Renal Proximal Tubule Epithelial Cells (RPTEC)", "how_it_was_run": "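Released lactate dehydrogenase, read as absorbance at 490 nm after 10 min with assay reagent, serves as read-out. Renal proximal tubule epithelial cells received peptide serial dilutions or vehicle for 90 min at 37° C after overnight plating.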"}, "[2]": {"experiment": "48 hours cytotoxicity assay (CellTiter-Glo), liver toxicity", "format": "cell-based, human", "conditions": "48 hours of incubation, CellTiter-Glo; read-out: Inhibitory Concentration at 50% Cytotoxicity (IC50) Human Liver Cells (HepG2)", "how_it_was_run": "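Viability from CellTiter-Glo luminescence after StAMP dilution series or vehicle acted on HepG2 cells for 48 h at 37 °C. Cells were grown in EMEM plus 10% FBS and given 4 h to attach before dosing.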"}, "[3]": {"test_system": "Klebsiella pneumoniae (K. pneumoniae)", "format": "cell-based", "conditions": "microbroth dilution, 20-24 hours at 37° C.", "how_it_was_run": "(§1)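 Visual growth read-out after 20-24 h at 37 °C defines the MIC. Inoculum: 5×10^5 CFU/ml of regrown (3-4 h) bacteria in MHB or MHB II, against serial peptide dilutions, following an adapted CLSI protocol.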"}, "[4]": {"test_system": "Staphylococcus aureus (S. aureus)", "format": "cell-based", "conditions": "microbroth dilution, 20-24 hours at 37° C.", "how_it_was_run": "as §1"}, "[5]": {"test_system": "Pseudomonas aeruginosa (P. aeruginosa)", "format": "cell-based", "conditions": "microbroth dilution, 20-24 hours at 37° C.", "how_it_was_run": "as §1"}, "[6]": {"test_system": "Escherichia coli (E. coli)", "format": "cell-based", "conditions": "microbroth dilution, 20-24 hours at 37° C.", "how_it_was_run": "as §1"}, "[7]": {"test_system": "Acinetobacter baumannii (A. baumannii)", "format": "cell-based", "conditions": "microbroth dilution, 20-24 hours at 37° C.", "how_it_was_run": "as §1"}}, "note": "Starred links: 1 amine or outer side, 2 acyl side, 3 side chain; linkers in the order of their positions; H or OH if unused. Positions of bridges follow the written chain, without caps; N, C: chain ends. Residues, ends and D or L forms follow the SMILES beside them. 2,2'Bipyridine(5,5'-diCH2) = c1cc(-c2ccc(C[*:2])cn2)ncc1C[*:1]; pXylylene = c1cc(C[*:2])ccc1C[*:1]", "data": [{"smiles": "CC[C@H](C)[C@H](NC(=O)CN)C(=O)N[C@@H](Cc1ccccc1)C(=O)N[C@@H](CO)C(=O)N[C@@H](CCCCN)C(=O)N[C@@H](CC(C)C)C(=O)N[C@@H](C)C(=O)NCC(=O)N[C@@H](CCCCN)C(=O)N[C@@H](CCCCN)C(=O)N[C@H]1CSCc2ccc(cc2)CSC[C@@H](C(=O)N[C@H](C(=O)N[C@@H](CO)C(=O)NCC(=O)N[C@@H](CC(C)C)C(=O)N[C@@H](CCCCN)C(=O)NCC(N)=O)[C@@H](C)CC)NC(=O)[C@H](CC(C)C)NC(=O)[C@H](CC(N)=O)NC(=O)[C@H](CCCCN)NC1=O", "note": "[compound 18] (H-GIFSKLAGKKCKNLCISGLKG-NH2; linker 11-15 via pXylylene)", "values": [{"measurement": "IC50", "setting": "[1]", "value": "> 200", "unit": "µg/mL"}, {"measurement": "IC50", "setting": "[2]", "value": "> 200", "unit": "µg/mL"}, {"measurement": "Minimum Inhibitory Concentration (MIC) K. pneumoniae", "setting": "[3]", "value": ">64", "unit": "µg/mL"}, {"measurement": "Minimum Inhibitory Concentration (MIC) S. aureus", "setting": "[4]", "value": ">64", "unit": "µg/mL"}, {"measurement": "Minimum Inhibitory Concentration (MIC) P. aeruginosa", "setting": "[5]", "value": ">64", "unit": "µg/mL"}, {"measurement": "Minimum Inhibitory Concentration (MIC) E. coli", "setting": "[6]", "value": ">64", "unit": "µg/mL"}, {"measurement": "Minimum Inhibitory Concentration (MIC) A. baumannii", "setting": "[7]", "value": ">64", "unit": "µg/mL"}]}, {"smiles": "CC[C@H](C)[C@H](NC(=O)[C@H](CC(C)C)NC(=O)[C@H](CC(C)C)NC(=O)[C@H](CC(N)=O)NC(=O)[C@H](CCCCN)NC(=O)[C@@H](NC(=O)[C@H](CCCCN)NC(=O)[C@H](CCCCN)NC(=O)[C@@H]1CSCc2ccc(nc2)-c2ccc(cn2)CSC[C@H](N)C(=O)N[C@@H]([C@@H](C)CC)C(=O)N[C@@H](Cc2ccccc2)C(=O)N[C@@H](CO)C(=O)N[C@@H](CCCCN)C(=O)N[C@@H](CC(C)C)C(=O)N[C@@H](C)C(=O)N1)[C@@H](C)CC)C(=O)N[C@@H](CO)C(=O)NCC(=O)N[C@@H](CC(C)C)C(=O)N[C@@H](CCCCN)C(=O)NCC(N)=O", "note": "[compound 49] (H-CIFSKLACKKIKNLLISGLKG-NH2; linker 1-8 via 2,2'Bipyridine(5,5'-diCH2); N-terminus assumed)", "values": [{"measurement": "IC50", "setting": "[1]", "value": 60, "unit": "µg/mL"}, {"measurement": "IC50", "setting": "[2]", "value": 22, "unit": "µg/mL"}, {"measurement": "Minimum Inhibitory Concentration (MIC) K. pneumoniae", "setting": "[3]", "value": ">64", "unit": "µg/mL"}, {"measurement": "Minimum Inhibitory Concentration (MIC) S. aureus", "setting": "[4]", "value": ">64", "unit": "µg/mL"}, {"measurement": "Minimum Inhibitory Concentration (MIC) P. aeruginosa", "setting": "[5]", "value": ">64", "unit": "µg/mL"}, {"measurement": "Minimum Inhibitory Concentration (MIC) E. coli", "setting": "[6]", "value": 32, "unit": "µg/mL"}, {"measurement": "Minimum Inhibitory Concentration (MIC) A. baumannii", "setting": "[7]", "value": 32, "unit": "µg/mL"}]}, {"smiles": "CC[C@H](C)[C@H](NC(=O)CN)C(=O)N[C@@H](Cc1ccccc1)C(=O)N[C@@H](CO)C(=O)N[C@@H](CCCCN)C(=O)N[C@@H](CC(C)C)C(=O)N[C@H]1CSCc2ccc(cc2)CSC[C@@H](C(=O)N[C@@H](CCCCN)C(=O)N[C@@H](CC(N)=O)C(=O)N[C@@H](CC(C)C)C(=O)N[C@@H](CC(C)C)C(=O)N[C@H](C(=O)N[C@@H](CO)C(=O)NCC(=O)N[C@@H](CC(C)C)C(=O)N[C@@H](CCCCN)C(=O)NCC(N)=O)[C@@H](C)CC)NC(=O)[C@H](CCCCN)NC(=O)[C@H](CCCCN)NC(=O)CNC1=O", "note": "[compound 3] (H-GIFSKLCGKKCKNLLISGLKG-NH2; linker 7-11 via pXylylene)", "values": [{"measurement": "IC50", "setting": "[1]", "value": 79, "unit": "µg/mL"}, {"measurement": "IC50", "setting": "[2]", "value": 86, "unit": "µg/mL"}, {"measurement": "Minimum Inhibitory Concentration (MIC) K. pneumoniae", "setting": "[3]", "value": 16, "unit": "µg/mL"}, {"measurement": "Minimum Inhibitory Concentration (MIC) S. aureus", "setting": "[4]", "value": ">64", "unit": "µg/mL"}, {"measurement": "Minimum Inhibitory Concentration (MIC) P. aeruginosa", "setting": "[5]", "value": 8, "unit": "µg/mL"}, {"measurement": "Minimum Inhibitory Concentration (MIC) E. coli", "setting": "[6]", "value": 2, "unit": "µg/mL"}, {"measurement": "Minimum Inhibitory Concentration (MIC) A. baumannii", "setting": "[7]", "value": 2, "unit": "µg/mL"}]}]}
